Experimental data as given in patent publication EP3364964B1, “COMPOSITION BASED ON DIHYDROMYRICETIN AND A ZINC SALT FOR THE TREATMENT OF ACNE AND OILY SKIN” (Thorel, Jean-Noël, priority 2015, dated 2017).
“And” between values parts separate entries of the source, which are not always exact repeats. Equal entries are not always repeated.

How the values were obtained:
[1] = system: collagénase issue de Clostridium histolyticum; assay: Anti-collagenase activity, MMP-1 kit, in tubo fluorescence test; type: biochemical
From the text: L'activité anti-collagénase est mesurée grâce au kit MMP-1 (Molecular Probes; Réf E12055). Le principe est basé sur la capacité d'une enzyme de la famille des MMP (« Marix Metallo-Proteinase ») zinc-dépendantes, en l'occurrence la collagénase issue de Clostridium histolyticum, à hydrolyser son substrat (collagène-I) pour donner des composés fluorescents mesurables.
En présence d'un inhibiteur, l'action de l'enzyme est altérée empêchant l'hydrolyse de son substrat. La 1,10 phénanthroline est utilisée comme le témoin positif d'inhibition de l'enzyme. La fluorescence émise à 535 nm est mesurée après excitation à 485 nm.
La 1,10-phenanthroline monohydrate (10mM), un inhibiteur connu des MMP fourni dans le kit, est utilisée comme contrôle positif.
Les contrôles négatifs suivants ont été réalisés : • Témoin H2O : ce témoin a été utilisé pour solubiliser la 1-10-phenantroline monohydrate; il représente arbitrairement 100% d'activité de l'enzyme par rapport aux résultats obtenus avec ce contrôle. • Témoin solvant (DMSO 1%) : quantité de solvant inclus dans l'ensemble des actifs et associations à tester; il représente arbitrairement 100% d'activité de l'enzyme par rapport aux résultats obtenus avec les actifs et associations testés.
Le gluconate de zinc a été testé à la concentration de 0,1% (en poids).
La DHM a été testée aux concentrations suivantes : 0,002% et 0,05% (en poids). L'association gluconate de zinc 0,1% + DHM 0,002% a également été testée.
Les analyses quantitatives sont exprimées sous forme de moyenne ± l'écart type. La significativité statistique est déterminée par un test de Student. Les différences sont considérées comme statistiquement significatives entre l'actif testé et son témoin solvant à partir de p<0.05. (NS : […]).

[2] = Protection of squalene against oxidation induced by hydrogen peroxide (GC/MS of non-oxidised squalene); details: H2O2 6%, 1 h; for Squalène Moyenne: mean; for Squalène (µg/ml): single trials (Essai)
From the text: L'objectif de ce test est d'évaluer l'inhibition par la DHM de l'oxydation du squalène, induite par le peroxyde d'hydrogène (H2O2). Le Trolox (6-Hydroxy-2,5,7,8-tétraméthylchroman-2-carboxylic acid), un équivalent hydrosoluble de la vitamine E, est un antioxydant connu et est utilisé dans ces tests en tant que témoin positif.
Le squalène (Sigma Aldrich) est dans un premier temps solubilisé dans une chambre réactionnelle.
L'oxydation du squalène est induite par l'ajout d'une solution de peroxyde d'hydrogène (H2O2 à une concentration finale de 6%).
Les actifs devant être évalués sont ajoutés au mélange réactionnel. Ainsi, le Trolox à 0,8% en poids est utilisé comme témoin positif de la protection contre l'oxydation du squalène.
Un contrôle positif, correspondant au squalène incubé en présence d'H2O2, et un contrôle négatif, correspondant au squalène non exposé à l'H2O2, sont également réalisés.
Le mélange obtenu est mis sous agitation pendant une heure, à température ambiante et à l'abri de la lumière.
Le squalène est ensuite extrait du milieu réactionnel à l'aide d'une extraction liquide/liquide. Après évaporation de la solution organique, le résidu est solubilisé dans une solution de chloroforme et le squalène est analysé par une méthode de chromatographie GC/MS.
La mesure de la concentration en squalène permet d'estimer la quantité de squalène ayant été oxydée au cours de la réaction. En effet et selon la technique de mesure utilisée, seule la forme non oxydée est détectée.

[3] = system: lignée de sébocytes humains SEB0662; assay: MTT cell viability / cytotoxicity test in sebocytes; type: cell-based
Method: (§1) Dans cette étude, on utilise la lignée de sébocytes humains SEB0662.
(§2) Les cellules sont cultivées dans le milieu de culture classique des sébocytes, à 37°C et en présence de 5% de CO2. Les cellules sont utilisées au 7^ème passage.
La sélection des doses d'actifs est réalisée grâce à un test de viabilité cellulaire au MTT. On retient les doses qui permettent de maintenir une viabilité supérieure à 90%.
L'erreur standard de la moyenne (esm) représente l'écart de ln moyenne de l'échantillon par rapport à la moyenne de la population. L'esm est calculée en divisant l'écart-type (Sd) par la racine carrée de la taille de l'échantillon (sqrt(n)). Erreur standard de la moyenne(esm) = écart-type(Sd)/sqrt(n) [formula] Pourcentage de viabilité: viabilité(%) = (DOcomposé/DOtémoin) × 100 [formula] Pourcentage de stimulation: Stimulation(%) = [(Valeur/moyennedutémoin)×100]−100 [formula] Pourcentage de d'inhibition: Inhibition(%) = 100−[(Valeur/moyennedutémoin)×100] [formula]

[4] = system: sébocytes SEB0662; assay: IGF-1 induced lipid synthesis in sebocytes (Bodipy lipid droplet labelling, 14 days); type: cell-based, humains; details: 0,001%, IGF-1 20 ng/ml
Method: La présente étude vise à étudier l'effet de la DHM et/ou du gluconate de zinc (Zn) sur l'inhibition de la synthèse des lipides, induite par l'ajout d'IGF-1, dans les sébocytes. Cet effet est suivi par marquage, à l'aide d'une sonde lipidique fluorescente couplée au Bodipy®, des sébocytes SEB0662 cultivés en monocouche pendant 14 jours en milieu de différenciation (supplémenté en IGF-1 à 20 ng/ml).
as §1, §2
Pour l'évaluation des actifs, un milieu dit de différenciation (milieu de culture classique supplémenté en dihydrotestostérone, albumine bovine sérique, acide linoléïque, glucose, sérum de veau fœtal, hydrocortisone et agonistes des PPAR (« Peroxysome Proliferator Activated Receptor »)), complémenté en IGF-1 à 20 ng/ml, est utilisé. L'ajout d'IGF-1 stimule la production de lipides par les sébocytes. […]
Les marquages sont quantifiés par mesure de l'intensité de fluorescence de la sonde rapportée au nombre de noyaux identifiés par le Hoechst (intégration des données numériques par le logiciel Developer Toolbox 1 .5, GE Healthcare). […]

[5] = system: Propionibacterium acnes ATCC 69.19; assay: Growth inhibition of P. acnes, micromethod of Lens-Lisbonne et al. (MIC); type: cell-based; details: first concentration with growth <= 20 %, 36° C, 3 to 5 days, anaerobic
From the text: L'objet de cette étude est d'évaluer l'activité inhibitrice de composés vis-à-vis de la souche Propionibacterium acnes selon les principes de la méthode décrite par Lens-Lisbonne et al. (1987).
La méthode de Lens-Lisbonne et al. permet de tester en milieu liquide le pouvoir antibactérien de substances faiblement solubles et/ou très volatiles, et permet d'éviter les méthodes par diffusion ou en phase vapeur. Brièvement, elle consiste à mettre en présence des volumes égaux de produit à tester et de milieu inoculé, à différentes concentrations. […] L'activité inhibitrice est évaluée à partir des mesures d'absorbance du mélange, comparées aux conditions contrôle. […]
Après incubation de la microplaque pendant une durée définie, la densité optique à 620 nm est mesurée. Les résultats sont exprimés en pourcentage de croissance calculé par rapport à un témoin de croissance et un témoin d'absorbance selon l'équation suivante: Pourcentage de croissance = (DOmesuréeduproduitàlaconcentrationC−DOmesuréedutémoind'absorbanceproduitàlaconcentrationC)/DO mesurée témoin de croissance [formula] […]
Le test est effectué sur microplaque 96 puits. En synthèse, 30 puits sont utilisés pour les témoins d'absorbance; 30 puits sont utilisés pour les essais. […]

O.c1cnc2c(c1)ccc1cccnc12 [1-10-phénanthroline monohydrate, 1,10-phenanthroline monohydrate, reference compound]
inhibition de l'activité collagénase ([1]; 10mM, versus H2O control): 79,6%

O=C1c2c(O)cc(O)cc2O[C@H](c2cc(O)c(O)c(O)c2)[C@H]1O [DHM, (2R,3R)-3,5,7-trihydroxy-2-(3,4,5-trihydroxyphenyl)-2,3-dihydrochromen-4-one]
Indice de protection (%) ([2]; 0,01 % en poids): 35,19%
Squalène Moyenne ([2]; 0,01 % en poids): 26,10 µg/ml
Squalène (µg/ml) ([2]; 0,01 % en poids): 27,01 µg/ml and 24,86 µg/ml and 26,42 µg/ml
Indice de protection (%) ([2]; 0,05 % en poids): 45,28%
Squalène Moyenne ([2]; 0,05 % en poids): 33,58 µg/ml
Squalène (µg/ml) ([2]; 0,05 % en poids): 34,44 µg/ml and 32,88 µg/ml and 33,41 µg/ml
Indice de protection (%) ([2]; 0,005 % en poids): 28,64%
Squalène Moyenne ([2]; 0,005 % en poids): 21,24 µg/ml
Squalène (µg/ml) ([2]; 0,005 % en poids): 19,84 µg/ml and 21,37 µg/ml and 22,51 µg/ml
effet cytotoxique ([3]; tested up to 0,003%): ne montre pas d'effet cytotoxique
inhibition de l'activité collagénase ([1]; 0,05% en poids, versus DMSO 1% control): 30,1%
inhibition de l'activité collagénase ([1]; 0,002% en poids, versus DMSO 1% control): 3,5%

Cc1c(C)c2c(c(C)c1O)CCC(C)(C(=O)O)O2 (stereo not drawn) [Trolox, 6-Hydroxy-2,5,7,8-tétraméthylchroman-2-carboxylic acid, reference compound]
Indice de protection (%) ([2]; 0,8 % en poids): 42,94%
Squalène Moyenne ([2]; 0,8 % en poids): 31,85 µg/ml
Squalène (µg/ml) ([2]; 0,8 % en poids): 31,41 µg/ml and 31,88 µg/ml and 32,25 µg/ml and 34,60 µg/ml and 32,49 µg/ml

gluconate de zinc [reference compound]
cytotoxicité ([3]; 0,001%): ne présente pas de cytotoxicité
inhibition de la synthèse des lipides induite par l'IGF-1 [4]: ~15%
inhibition de l'activité collagénase ([1]; 0,1% en poids, versus DMSO 1% control): 80,2%
CMI microméthode (%-m/v) ([5]; Test 1): 0,05 %-m/v
CMI microméthode (%-m/v) ([5]; Test 2): 0,05 %-m/v
